The test system of one experiment is calf thymus DNA (CT-DNA). The experiment in a line: DNA binding study, UV-Visible absorption titration. The following applies: UV-Vis titration, 25 μM compound. From the text: The vast majority of anticancer agents used in pharmaceutical chemistry act on functional macromolecules such as DNA and proteins. Given this well-known fact, the relationship between newly developed anticancer drug candidates and macromolecules should be studied in detail. The interaction of molecules with DNA leads to significant changes in the helical structure of DNA, which can be observed by spectrophotometric techniques. […] Also, the red or blue shift in the absorption bands of the compounds can be an indication of the stability of the compound and the DNA structure. The DNA/BSA binding properties of the new chemicals synthesized by our group were determined using a UV-Vis spectrophotometer. The interactions of these compounds with DNA were as follows. […] Kb is the binding constant related to the complex to DNA and can be calculated algebraically from the slope of the line drawn between [DNA] / (ɛa-ɛf) and [DNA]. […]
To find the interaction of the compounds with calf thymus DNA and to calculate the binding constants (Kb) UV–Visible absorption spectroscopy technique was used. […] After dissolving the calf thymus DNA fibers in Tris–HCl buffer, the purity of this solution was checked from the absorbance ratio A260/A280. […] Absorption spectra were recorded by using 1-cm-path quartz cuvettes at room temperature. […]

The target of another experiment is BSA (Bos taurus, UniProt P02769). As to the kind of experiment: BSA binding study, UV-Visible absorption. Particulars: UV-Vis, 25 μM compound, BSA 6.5–800 μM. From the text: The vast majority of anticancer agents used in pharmaceutical chemistry act on functional macromolecules such as DNA and proteins. Given this well-known fact, the relationship between newly developed anticancer drug candidates and macromolecules should be studied in detail. The interaction of molecules with DNA leads to significant changes in the helical structure of DNA, which can be observed by spectrophotometric techniques. […] Also, the red or blue shift in the absorption bands of the compounds can be an indication of the stability of the compound and the DNA structure. The DNA/BSA binding properties of the new chemicals synthesized by our group were determined using a UV-Vis spectrophotometer. The interactions of these compounds with DNA were as follows. In the spectra obtained by UV-Vis studies of the compounds, a single maximum absorption peak was observed and this peak had no clear bathochromic or hypsochromic effect. […]. […] The physical interactions of our newly synthesized compounds with BSA caused the formation of the spectral bands described below. […]. […]. Kb is the binding constant related to the complex to DNA and can be calculated algebraically from the slope of the line drawn between [DNA] / (ɛa-ɛf) and [DNA]. […].
Chain of BSA (P02769 25-607): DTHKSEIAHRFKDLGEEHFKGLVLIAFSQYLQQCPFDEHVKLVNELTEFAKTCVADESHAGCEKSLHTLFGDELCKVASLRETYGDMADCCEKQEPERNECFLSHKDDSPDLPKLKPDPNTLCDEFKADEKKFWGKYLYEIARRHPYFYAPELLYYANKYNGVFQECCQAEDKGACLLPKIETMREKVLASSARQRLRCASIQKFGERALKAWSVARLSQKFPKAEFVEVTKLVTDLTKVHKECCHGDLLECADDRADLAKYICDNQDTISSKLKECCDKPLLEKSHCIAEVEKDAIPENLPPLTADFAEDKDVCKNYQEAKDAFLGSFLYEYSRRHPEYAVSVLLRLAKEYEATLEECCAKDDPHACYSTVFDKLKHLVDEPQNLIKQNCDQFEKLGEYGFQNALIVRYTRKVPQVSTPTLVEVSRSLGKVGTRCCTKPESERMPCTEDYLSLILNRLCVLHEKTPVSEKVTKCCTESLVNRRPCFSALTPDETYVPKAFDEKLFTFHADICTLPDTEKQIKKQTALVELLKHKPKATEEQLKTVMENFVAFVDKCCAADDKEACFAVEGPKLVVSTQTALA
To find the interaction of the compounds with calf thymus DNA and to calculate the binding constants (Kb) UV–Visible absorption spectroscopy technique was used. A 2.5-mg calf thymus DNA was dissolved in 10.0 mL Tris–HCl buffer (20 mM Tris–HCl, 20 mM NaCl, pH 7.0) and stabile during one week in the refrigerator. […]. After dissolving the calf thymus DNA fibers in Tris–HCl buffer, the purity of this solution was checked from the absorbance ratio A260/A280. […]. These compounds were diluted with Tris–HCl buffer to obtain 25 μM concentrations. Test compounds in the solutions were incubated at room temperature for nearly 30 min before the process. The UV-visible spectral studies were performed in mixed solvent system (1/9 DMSO/Tris–HCl buffer) using eight points that the fine structure is observed for these compounds in this system by UV-visible absorption. […]. Absorption spectra were recorded by using 1-cm-path quartz cuvettes at room temperature. To evaluate the interaction of the compounds with BSA, UV–Visible absorption spectroscopy technique was also used. A 2.5 mg BSA was dissolved in 10.0 mL of Tris–HCl buffer (5 mM Tris–HCl, 10 mM NaCl at pH 7.4) and stored in the refrigerator. […]

SMILES strings stand for the structures.

For the compound `Cc1ccccc1-c1cc(-c2ccccn2)nc(N[C@@H]2O[C@H](CO)[C@@H](O)[C@H](O)[C@H]2O)n1` [Compound 1, N-[4-(2-methylphenyl)-6-pyridin-2-ylpyrimidin-2-yl]-β-D-glucopyranosylamine], the “binding constant (Kb)” value in the experiment on calf thymus DNA (CT-DNA) is “greater interest in DNA than the anticancer drugs cisplatin and 5FU”. In the case of `Cc1cccc(-c2cc(-c3ccccn3)nc(N[C@@H]3O[C@H](CO)[C@@H](O)[C@H](O)[C@H]3O)n2)c1` [Compound 4, N-[4-(3-methylphenyl)-6-pyridin-2-ylpyrimidin-2-yl]-β-D-glucopyranosylamine], the “change of absorption on adding increasing amounts of BSA” value on BSA is reported as “hyperchromic activity”.

For the compound `CC(=O)OC[C@H]1O[C@@H](Nc2nc(-c3ccc(C)cc3)cc(-c3ccccn3)n2)[C@H](OC(C)=O)[C@@H](OC(C)=O)[C@@H]1OC(C)=O` [Compound 16, 2,3,4,6-tetra-O-acetyl-N-[4-(4-methylphenyl)-6-pyridin-2-ylpyrimidin-2-yl]-β-D-glucopyranosylamine], the “change of absorption on adding increasing amounts of BSA” value on BSA was “hypochromically”. Regarding `Cc1ccc(-c2cc(-c3ccncc3)nc(N[C@@H]3O[C@H](CO)[C@@H](O)[C@H](O)[C@H]3O)n2)cc1` [Compound 9, N-[4-(4-methylphenyl)-6-pyridin-4-ylpyrimidin-2-yl]-β-D-glucopyranosylamine], the “change of absorption on adding increasing amounts of BSA” value on BSA is reported as “hyperchromic activity”. On to `Cc1cccc(-c2cc(-c3ccncc3)nc(N[C@@H]3O[C@H](CO)[C@@H](O)[C@H](O)[C@H]3O)n2)c1` [Compound 6, N-[4-(3-methylphenyl)-6-pyridin-4-ylpyrimidin-2-yl]-β-D-glucopyranosylamine], for which, at BSA, the “change of absorption on adding increasing amounts of BSA” value is reported as “hyperchromic activity”.

Source of the values: article PMC10387993, “New pyrimidine-N-β-D-glucosides: synthesis, biological evaluation, and molecular docking investigations” (Turkish Journal of Chemistry, 2023).
